Test results as given in patent US20240150334A1, “HSD17B13 INHIBITORS AND/OR DEGRADERS” (Pfizer Inc., priority 2022, published 2024).
Where a name gives a salt, the structure may show the parent alone.

Columns and labels:
wild type human HSD17B13 = wild type human HSD17B13 (Homo sapiens (Human), UniProt Q7Z5P4); assay: HEK_Beta-Est LCMS_IC50_Tekcel, whole-cell HEK-HSD17B13 inhibition assay, estrone production by LCMS; format: cell-based; details: geometric mean, HEK cells stably expressing wild type human HSD17B13, 25 μM FAC beta-estradiol, read-out: HEK_Beta-Est LCMS_IC50—Tekcel GMean IC50
Outline: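 HEK cells expressing wild-type human HSD17B13 were preincubated with compound for 1 hour at 37° C, then the beta-estradiol/NAD+ reaction ran for 2 hours at 37° C. Estrone formed was quantified by LCMS as product area ratio and normalized to uninhibited vehicle-control wells.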

HSD17B13 enzyme = HSD17B13 enzyme (Homo sapiens (Human), UniProt Q7Z5P4); assay: hHSD17B13 IC50 Assay (FAC beta-estradiol), purified protein enzyme activity assay with NAD(P)H-Glo luciferase readout; format: biochemical; details: geometric mean, 12 μM FAC beta-estradiol, 500 μM NAD+, read-out: hHSD17B13_IC50 GMean IC50
Description: The following protocols may of course be varied by those skilled in the art. hHSD17B13 IC50 Assay (FAC beta-estradiol)
HSD17B13 enzyme inhibition potency of test compounds was determined using a purified protein biochemical enzyme activity assay, using NAD(P)H-Glo luciferase readout (Promega). HSD17B13 enzyme uses the oxidized form of nicotinamide adenine dinucleotide (NAD+) as a cofactor during metabolism of Beta-Estradiol (substrate) to […], while converting NAD+ to the reduced form (NADH). The Promega NAD(P)H-Glo™ assay is a homogeneous bioluminescent assay that generates a light signal from biochemical reactions that contain NADH (or nicotinamide adenine dinucleotide phosphate, NADPH). In the presence of NADH (or NADPH), the enzyme Reductase reduces a proluciferin reductase substrate to form luciferin. Luciferin then is quantified using Ultra-Glo™ Recombinant Luciferase (rLuciferase), and the light signal produced is proportional to the amount of NAD(P)H in the sample. […] The reaction was initiated by the addition of 2 μL/well purified HSD17B13 protein (30 nM FAC in assay buffer). Compound, substrate mix and HSD17B13 protein was incubated in the dark at room temperature for 2 hours before the addition of 3 μL/well NAD(P)H-Glo detection reagent, prepared from luciferase detection reagent and reductase/reductase substrate, as per manufacturer's instructions (Promega, G9061). Detection reagent was incubated in the dark for 1 hour at room temperature before plates were read on the Envision plate reader (Perkin Elmer) using a luminescent protocol. Data expressed as relative luminescent units (RLUs) were then normalized to control wells using Activity Base (IDBS). Zero percent effect (ZPE) was defined as RLUs generated from uninhibited HSD17B13 protein (vehicle control).

wild type human HSD17B13, sequence (Q7Z5P4 20-300): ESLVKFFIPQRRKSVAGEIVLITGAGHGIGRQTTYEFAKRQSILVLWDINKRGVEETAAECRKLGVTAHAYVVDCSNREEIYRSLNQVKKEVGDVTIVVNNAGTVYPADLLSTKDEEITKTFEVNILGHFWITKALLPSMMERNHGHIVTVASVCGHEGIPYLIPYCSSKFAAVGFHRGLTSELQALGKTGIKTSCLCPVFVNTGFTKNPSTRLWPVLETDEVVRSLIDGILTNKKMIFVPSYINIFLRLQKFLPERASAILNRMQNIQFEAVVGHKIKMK
HSD17B13 enzyme, sequence (Q7Z5P4 20-300): as above

## O=C(NC[C@H]1CC[C@H](c2noc(-c3ccccc3)n2)CC1)c1cc(F)c(O)c(F)c1 [Example 138, 3,5-difluoro-4-hydroxy-N-{[(1r,4r)-4-(5-phenyl-1,2,4-oxadiazol-3-yl)cyclohexyl]methyl}benzamide]
Wild type human HSD17B13
  IC50: 200 nM
HSD17B13 enzyme
  IC50: 16 nM

## N#Cc1ccc(-c2ccc3cn([C@H]4CC[C@H](CNC(=O)c5cc(F)c(O)c(F)c5)CC4)nc3c2)cc1 [Example 70, N-({(1r,4r)-4-[6-(4-cyanophenyl)-2H-indazol-2-yl]cyclohexyl}methyl)-3,5-difluoro-4-hydroxybenzamide]
Wild type human HSD17B13
  IC50: 190 nM
HSD17B13 enzyme
  IC50: 3.8 nM

## Cc1ccc(-c2noc([C@]34CC[C@](CNC(=O)c5cc(F)c(O)c(F)c5)(CC3)CC4)n2)nn1 [Example 123, 3,5-difluoro-4-hydroxy-N-({4-[3-(6-methylpyridazin-3-yl)-1,2,4-oxadiazol-5-yl]bicyclo[2.2.2]octan-1-yl}methyl)benzamide]
Wild type human HSD17B13
  IC50: 460 nM
HSD17B13 enzyme
  IC50: 10 nM

## O=C(NC[C@]12CC[C@](c3nc(-c4ccc(C(F)F)nc4)no3)(CC1)CC2)c1cc(F)c(O)c(F)c1 [Example 142, N-[(4-{3-[6-(difluoromethyl)pyridin-3-yl]-1,2,4-oxadiazol-5-yl}bicyclo[2.2.2]octan-1-yl)methyl]-3,5-difluoro-4-hydroxybenzamide]
Wild type human HSD17B13
  IC50: 160 nM
HSD17B13 enzyme
  IC50: 10 nM

## Cc1cnc(-c2ccc3cn([C@H]4CC[C@H](CNC(=O)c5cc(F)c(O)c(F)c5)CC4)nc3c2)nc1 [Example 74, 3,5-difluoro-4-hydroxy-N-({(1r,4r)-4-[6-(5-methylpyrimidin-2-yl)-2H-indazol-2-yl]cyclohexyl}methyl)benzamide]
Wild type human HSD17B13
  IC50: 170 nM
HSD17B13 enzyme
  IC50: 12 nM

## O=C(NC[C@H]1CC[C@H](n2cc3ccc(-c4ccnnc4)cc3n2)CC1)c1cc(F)c(O)c(F)c1 [Example 71, 3,5-difluoro-4-hydroxy-N-({(1r,4r)-4-[6-(pyridazin-4-yl)-2H-indazol-2-yl]cyclohexyl}methyl)benzamide]
Wild type human HSD17B13
  IC50: 430 nM
HSD17B13 enzyme
  IC50: 9.6 nM

## COc1ccc(-c2ccc3cn([C@H]4CC[C@H](CNC(=O)c5cc(F)c(O)c(F)c5)CC4)nc3c2)cc1 [Example 67, 3,5-difluoro-4-hydroxy-N-({(1r,4r)-4-[6-(4-methoxyphenyl)-2H-indazol-2-yl]cyclohexyl}methyl) benzamide]
Wild type human HSD17B13
  IC50: 270 nM
HSD17B13 enzyme
  IC50: 31 nM

## O=C(NC[C@H]1CC[C@H](n2cc3ccc(-c4cnccn4)cc3n2)CC1)c1cc(F)c(O)c(F)c1F [Example 28, 2,3,5-trifluoro-4-hydroxy-N-({(1r,4r)-4-[6-(pyrazin-2-yl)-2H-indazol-2-yl]cyclohexyl}methyl)benzamide]
Wild type human HSD17B13
  IC50: 170 nM
HSD17B13 enzyme
  IC50: 8.7 nM

## O=C(NC[C@H]1CC[C@H](n2cc3ccc(F)cc3n2)CC1)c1cc(F)c(O)c(F)c1 [Example 16, 3,5-Difluoro-N-{[(1r,4r)-4-(6-fluoro-2H-indazol-2-yl)cyclohexyl]methyl}-4-hydroxybenzamide, ammonium salt]
Wild type human HSD17B13
  IC50: 310 nM
HSD17B13 enzyme
  IC50: 17 nM

## Cc1ccc2nn([C@H]3CC[C@H](CNC(=O)c4cc(F)c(O)c(F)c4)CC3)cc2c1 [Example 131, 3,5-difluoro-4-hydroxy-N-{[(1r,4r)-4-(5-methyl-2H-indazol-2-yl)cyclo-hexyl]methyl} benzamide]
Wild type human HSD17B13
  IC50: 270 nM
HSD17B13 enzyme
  IC50: 27 nM

## Cc1ccc(-c2noc([C@H]3CC[C@H](CNC(=O)c4cc(F)c(O)c(F)c4F)CC3)n2)nn1 [Example 212, 2,3,5-trifluoro-4-hydroxy-N-({(1r,4r)-4-[3-(6-methylpyridazin-3-yl)-1,2,4-oxadiazol-5-yl]cyclohexyl}methyl) benzamide]
Wild type human HSD17B13
  IC50: 2300 nM
HSD17B13 enzyme
  IC50: 26 nM

## COc1ccc2cn([C@H]3CC[C@H](CNC(=O)c4cc(F)c(O)c(F)c4)CC3)nc2c1 [Example 23, 3,5-difluoro-4-hydroxy-N-{[(1r,4r)-4-(6-methoxy-2H-indazol-2-yl)cyclohexyl]methyl} benzamide]
HSD17B13 enzyme
  IC50: 20 nM

## Cc1noc([C@H]2CC[C@H](CNC(=O)c3cc(F)c(O)c(F)c3)CC2)n1 [Example 213, 3,5-difluoro-4-hydroxy-N-{[(1r,4r)-4-(3-methyl-1,2,4-oxadiazol-5-yl)cyclohexyl]methyl}benzamide]
HSD17B13 enzyme
  IC50: 64 nM

## Cc1noc([C@H]2CC[C@H](CNC(=O)c3ccc(O)c(F)c3)CC2)n1 [Example 214, 3-fluoro-4-hydroxy-N-{[(1r,4r)-4-(3-methyl-1,2,4-oxadiazol-5-yl)cyclohexyl]methyl} benzamide]
HSD17B13 enzyme
  IC50: 290 nM

## O=C(NC[C@H]1CC[C@H](n2cc3ccc(-c4cnn(CCO)c4)cc3n2)CC1)c1cc(F)c(O)c(F)c1 [Example 160, 3,5-difluoro-4-hydroxy-N-{[(1r,4r)-4-{6-[1-(2-hydroxyethyl)-1H-pyrazol-4-yl]-2H-indazol-2-yl}cyclo-hexyl]methyl} benzamide, trifluoroacetate salt]
Wild type human HSD17B13
  IC50: 400 nM

## COc1nccc(-c2ccc3cn([C@H]4CC[C@H](CNC(=O)c5cc(F)c(O)c(F)c5)CC4)nc3c2)n1 [Example 109, 3,5-difluoro-4-hydroxy-N-({(1r,4r)-4-[6-(2-methoxy-pyrimidin-4-yl)-2H-indazol-2-yl]cyclohexyl}methyl) benzamide]
Wild type human HSD17B13
  IC50: 170 nM

## O=C(NC[C@H]1CC[C@H](n2cc3ccc(-n4cncn4)cc3n2)CC1)c1cc(F)c(O)c(F)c1F [Example 165, 2,3,5-trifluoro-4-hydroxy-N-({(1r,4r)-4-[6-(1H-1,2,4-triazol-1-yl)-2H-indazol-2-yl]cyclohexyl}methyl) benzamide]
Wild type human HSD17B13
  IC50: 420 nM

## O=C(NC[C@H]1CC[C@H](n2cc3ccc(-c4cnn(CC(F)F)c4)cc3n2)CC1)c1cc(F)c(O)c(F)c1 [Example 10, N-{[(1r,4r)-4-{6-[1-(2,2-Difluoroethyl)-1H-pyrazol-4-yl]-2H-indazol-2-yl}cyclohexyl]methyl}-3,5-difluoro-4-hydroxybenzamide, trifluoroacetate salt]
Wild type human HSD17B13
  IC50: 120 nM

## COc1cc(-c2ccc3cn([C@H]4CC[C@H](CNC(=O)c5cc(F)c(O)c(F)c5)CC4)nc3c2)ccn1 [Example 106, 3,5-difluoro-4-hydroxy-N-({(1r,4r)-4-[6-(2-methoxypyridin-4-yl)-2H-indazol-2-yl]cyclohexyl}methyl) benzamide, trifluoroacetate salt]
Wild type human HSD17B13
  IC50: 150 nM

## O=C(NC[C@H]1CC[C@H](n2cc3cc(-c4cncnc4)ccc3n2)CC1)c1cc(F)c(O)c(F)c1 [Example 157, 3,5-difluoro-4-hydroxy-N-({(1r,4r)-4-[5-(pyrimidin-5-yl)-2H-indazol-2-yl]cyclohexyl}methyl) benzamide, trifluoroacetate salt]
Wild type human HSD17B13
  IC50: 270 nM

## O=C(NC[C@H]1CC[C@H](n2cc3ccc(-c4csc(C5CC5)n4)cc3n2)CC1)c1cc(F)c(O)c(F)c1 [Example 85, N-({(1r,4r)-4-[6-(2-cyclopropyl-1,3-thiazol-4-yl)-2H-indazol-2-yl]cyclohexyl}methyl)-3,5-difluoro-4-hydroxybenzamide]
Wild type human HSD17B13
  IC50: 180 nM

## Cn1cc(-c2ccc3cn([C@]45CC[C@](CNC(=O)c6cc(F)c(O)c(F)c6F)(CC4)CC5)nc3c2)cn1 [Example 209, 2,3,5-trifluoro-4-hydroxy-N-({4-[6-(1-methyl-1H-pyrazol-4-yl)-2H-indazol-2-yl]bicyclo[2.2.2]octan-1-yl}methyl)benzamide]
Wild type human HSD17B13
  IC50: 150 nM

## O=C(NC[C@H]1CC[C@H](n2cc3ccc(-n4ccnc4)cc3n2)CC1)c1cc(F)c(O)c(F)c1F [Example 166, 2,3,5-trifluoro-4-hydroxy-N-({(1r,4r)-4-[6-(1H-imidazol-1-yl)-2H-indazol-2-yl]cyclohexyl}methyl) benzamide, trifluoroacetate salt]
Wild type human HSD17B13
  IC50: 410 nM

## Cc1cccc(-c2noc([C@]34CC[C@](CNC(=O)c5cc(F)c(O)c(F)c5)(CC3)CC4)n2)n1 [Example 194, 3,5-difluoro-4-hydroxy-N-({4-[3-(6-methylpyridin-2-yl)-1,2,4-oxadiazol-5-yl]bicyclo[2.2.2]octan-1-yl}methyl) benzamide]
Wild type human HSD17B13
  IC50: 230 nM

## O=C(NC[C@H]1CC[C@H](n2cc3ccc(-c4ccn5ccnc5c4)cc3n2)CC1)c1cc(F)c(O)c(F)c1 [Example 117, 3,5-difluoro-4-hydroxy-N-({(1r,4r)-4-[6-(imidazo[1,2-a]pyridin-7-yl)-2H-indazol-2-yl]cyclohexyl}methyl) benzamide, trifluoroacetate salt]
Wild type human HSD17B13
  IC50: 180 nM

## Cc1cc(-c2ccc3cn([C@H]4CC[C@H](CNC(=O)c5cc(F)c(O)c(F)c5)CC4)nc3c2)ccn1 [Example 81, 3,5-difluoro-4-hydroxy-N-({(1r,4r)-4-[6-(2-methylpyridin-4-yl)-2H-indazol-2-yl]cyclohexyl}methyl) benzamide, trifluoroacetate salt]
Wild type human HSD17B13
  IC50: 120 nM
